This note sets out measurements from patent US9061030B2, “sGC stimulators” (IRONWOOD PHARMACEUTICALS, INC., priority 2010, dated 2015).

The target in the assay is T1, Human soluble guanylate cyclase enzyme (hsGC) (Homo sapiens, UniProt Q02108+Q02153).
T1 construct: purchased Enzo Inc. ALX-201-177
T1 sequence (Q02153 1-619): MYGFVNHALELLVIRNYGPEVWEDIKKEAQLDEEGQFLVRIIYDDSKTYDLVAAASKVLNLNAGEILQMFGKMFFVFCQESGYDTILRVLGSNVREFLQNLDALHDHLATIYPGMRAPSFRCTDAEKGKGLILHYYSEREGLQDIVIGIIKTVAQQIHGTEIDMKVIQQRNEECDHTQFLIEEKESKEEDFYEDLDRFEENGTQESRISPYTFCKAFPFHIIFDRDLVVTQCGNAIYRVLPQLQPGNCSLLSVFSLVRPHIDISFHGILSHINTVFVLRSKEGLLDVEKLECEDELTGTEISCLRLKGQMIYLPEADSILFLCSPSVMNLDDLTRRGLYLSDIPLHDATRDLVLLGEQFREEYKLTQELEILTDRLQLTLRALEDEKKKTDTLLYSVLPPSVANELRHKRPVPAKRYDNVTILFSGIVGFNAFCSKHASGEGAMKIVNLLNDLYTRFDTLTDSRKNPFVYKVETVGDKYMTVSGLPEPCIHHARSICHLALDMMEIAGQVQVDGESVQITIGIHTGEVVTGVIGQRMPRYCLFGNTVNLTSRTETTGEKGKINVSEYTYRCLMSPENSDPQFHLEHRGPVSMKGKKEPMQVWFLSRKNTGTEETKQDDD
T1 sequence (Q02108 1-690): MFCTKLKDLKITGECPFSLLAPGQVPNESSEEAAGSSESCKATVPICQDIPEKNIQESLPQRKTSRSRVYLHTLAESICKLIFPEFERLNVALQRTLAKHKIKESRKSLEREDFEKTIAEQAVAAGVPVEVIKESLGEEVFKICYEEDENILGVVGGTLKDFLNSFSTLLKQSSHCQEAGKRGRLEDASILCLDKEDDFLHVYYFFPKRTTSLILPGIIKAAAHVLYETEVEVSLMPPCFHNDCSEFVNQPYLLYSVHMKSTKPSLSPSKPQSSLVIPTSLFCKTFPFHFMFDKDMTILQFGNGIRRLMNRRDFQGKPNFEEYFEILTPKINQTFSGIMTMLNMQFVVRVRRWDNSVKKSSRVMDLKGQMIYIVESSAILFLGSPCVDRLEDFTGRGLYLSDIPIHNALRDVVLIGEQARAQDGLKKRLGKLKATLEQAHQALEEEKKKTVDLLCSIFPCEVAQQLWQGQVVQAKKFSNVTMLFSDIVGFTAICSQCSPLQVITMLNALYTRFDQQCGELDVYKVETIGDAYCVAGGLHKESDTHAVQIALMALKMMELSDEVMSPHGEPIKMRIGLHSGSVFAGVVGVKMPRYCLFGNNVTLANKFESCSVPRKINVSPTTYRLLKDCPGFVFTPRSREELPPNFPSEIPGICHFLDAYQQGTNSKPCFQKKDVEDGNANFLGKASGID
Description: Purified human sGC enzyme activity assay (with or without SNP). It counts as biochemical. Particulars: for sGC Enzyme Activity Increase at 30 μM with SNP / sGC Enzyme Activity Increase at 30 μM without SNP: 30 μM compound. The procedure, abridged: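 Purified human sGC (5 ng) incubated 30 min at 37° C with compound at 10 or 30 μM, 300 μM GTP, 2 mM MgCl2 and 1 mM IBMX at pH 8.0, with or without 1 μM SNP. cGMP formed was quantified against a standard curve. Results are given as fold-change in specific activity over DMSO (or DMSO+SNP) control.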

Where [1] appears, read: 1 μM SNP, specific activity vs DMSO and SNP.
Where [2] appears, read: without SNP, specific activity vs DMSO control.

Regarding `Fc1ccccc1Cn1nc(-c2ccccn2)nc1-c1ccccn1` [Compound I-1], under “10 μM compound, 1 μM SNP, specific activity vs DMSO and SNP”, the “sGC Enzyme Activity Increase at 10 μM with SNP” value is given as “B (B = 1 to <2 fold increase)”. Moreover, the “sGC Enzyme Activity Increase at 10 μM without SNP” value (10 μM compound, without SNP, specific activity vs DMSO control) was “B (B = 1 to <2 fold increase)”. In addition, the “sGC Enzyme Activity Increase at 30 μM with SNP” value under setting [1] is recorded as “C (C = 2 to <5 fold increase)”. The “sGC Enzyme Activity Increase at 30 μM without SNP” value under setting [2] is on record as “C (C = 2 to <5 fold increase)”.
On to `Fc1ccccc1Cn1nc(-c2ncccn2)nc1-c1cscn1` [Compound I-3], for which the “sGC Enzyme Activity Increase at 30 μM with SNP” value under setting [1] was “D (D = 5 to <10 fold increase)”. Further, the “sGC Enzyme Activity Increase at 30 μM without SNP” value under setting [2] was “B (B = 1 to <2 fold increase)”.
As for `Fc1ccccc1Cn1nc(-c2ccccn2)nc1-c1cscn1` [Compound I-4], under setting [1], the “sGC Enzyme Activity Increase at 30 μM with SNP” value is given as “E (E = 10 to <20 fold increase)”. For the same compound, the “sGC Enzyme Activity Increase at 30 μM without SNP” value under setting [2] is “C (C = 2 to <5 fold increase)”.
For `Fc1ccccc1Cn1nc(-c2ccccn2)nc1-c1ncco1` [Compound I-6], in that order: “D (D = 5 to <10 fold increase)” and “D (D = 5 to <10 fold increase)”.
In the case of `Fc1ccccc1Cn1nc(-c2ccccn2)nc1-c1cocn1` [Compound I-12, 4-(1-(2-fluorobenzyl)-3-(pyridin-2-yl)-1H-1,2,4-triazol-5-yl)oxazole], under setting [1], the “sGC Enzyme Activity Increase at 30 μM with SNP” value was “E (E = 10 to <20 fold increase)”. Besides, under setting [2], the “sGC Enzyme Activity Increase at 30 μM without SNP” value is given as “C (C = 2 to <5 fold increase)”.
With `Fc1ccccc1Cn1nc(-c2ccccn2)nc1-c1nccs1` [Compound I-25], under setting [1], the “sGC Enzyme Activity Increase at 30 μM with SNP” value was “E (E = 10 to <20 fold increase)”. Also, the “sGC Enzyme Activity Increase at 30 μM without SNP” value under setting [2] is “D (D = 5 to <10 fold increase)”.
For `Fc1ccccc1Cn1nc(-c2ncccn2)nc1-c1nccs1` [Compound I-30], in that order: “C (C = 2 to <5 fold increase)” and “B (B = 1 to <2 fold increase)”.
For `Fc1ccc(-c2nc(-c3nccs3)n(Cc3ccccc3F)n2)nc1` [Compound I-38], in that order: “E (E = 10 to <20 fold increase)” and “C (C = 2 to <5 fold increase)”.
The like results for `Fc1ccccc1Cn1nc(-c2cscn2)nc1-c1nccs1` [Compound I-40] were, in that order, “D (D = 5 to <10 fold increase)” and “B (B = 1 to <2 fold increase)”.
Turning to `Fc1ccccc1Cn1nc(-c2nccs2)nc1-c1cscn1` [Compound I-41], the “sGC Enzyme Activity Increase at 30 μM with SNP” value under setting [1] was “E (E = 10 to <20 fold increase)”. Further, under setting [2], the “sGC Enzyme Activity Increase at 30 μM without SNP” value is reported as “C (C = 2 to <5 fold increase)”.
For `Nc1ccnc(-c2nc(-c3nccs3)n(Cc3ccccc3F)n2)c1` [Compound I-44], in that order: “F (F = 20 to <50 fold increase)” and “D (D = 5 to <10 fold increase)”.
The like results for `Fc1ccccc1Cn1nc(-c2ncccn2)nc1-c1cocn1` [Compound I-46] were, in that order, “C (C = 2 to <5 fold increase)” and “B (B = 1 to <2 fold increase)”.
For `Nc1ccnc(-c2nc(-c3nccs3)n(Cc3ccccc3F)n2)n1` [Compound I-48, 2-(1-(2-fluorobenzyl)-5-(thiazol-2-yl)-1H-1,2,4-triazol-3-yl)pyrimidin-4-amine], in that order: “D (D = 5 to <10 fold increase)” and “C (C = 2 to <5 fold increase)”.
Turning to `Fc1ccccc1Cn1nc(-c2ccccn2)nc1-n1cncn1` [Compound I-50, 2′-(2-fluorobenzyl)-5′-(pyridin-2-yl)-2′H-1,3′-bi(1′,2′,4-triazole)], the “sGC Enzyme Activity Increase at 30 μM with SNP” value under setting [1] is “C (C = 2 to <5 fold increase)”. The “sGC Enzyme Activity Increase at 30 μM without SNP” value under setting [2] is reported as “B (B = 1 to <2 fold increase)”.
As to `Nc1ccnc(-c2nc(-c3cscn3)n(Cc3ccccc3F)n2)c1` [Compound I-53, 2-(1-(2-fluorobenzyl)-5-(thiazol-4-yl)-1H-1,2,4-triazol-3-yl)pyridin-4-amine], the “sGC Enzyme Activity Increase at 30 μM with SNP” value under setting [1] is listed as “F (F = 20 to <50 fold increase)”. Also, the “sGC Enzyme Activity Increase at 30 μM without SNP” value under setting [2] is reported as “D (D = 5 to <10 fold increase)”.
For `COC(=O)N(C)c1c(N)nc(-c2nc(-c3nccs3)n(Cc3ccccc3F)n2)nc1N` [Compound I-61, methyl 4,6-diamino-2-(1-(2-fluorobenzyl)-5-(thiazol-2-yl)-1H-1,2,4-triazol-3-yl)pyrimidin-5-yl(methyl)carbamate], in that order: “D (D = 5 to <10 fold increase)” and “C (C = 2 to <5 fold increase)”.
